Laboratory results taken from patent US20230375530A1, “HUMAN BLOOD-BRAIN BARRIER MODEL FOR IMMUNOLOGICAL STUDIES” (WISCONSIN ALUMNI RESEARCH FOUNDATION, priority 2020, published 2023).

Test system: Passage 1 ECs (WTC11)
Experiment: EC proliferation (Ki67 immunocytochemistry, cell cycle analysis)
Assay type: cell-based, human
Conditions: CHIR vs DMSO
Procedure: Images were analyzed using FIJI (ImageJ) software. For epifluorescence images, 5 fields (20×) were analyzed per well, with 3-4 wells per treatment condition. For quantification of cell number, EC colonies were manually outlined, and the Analyze Particles function was used to estimate the number of nuclei within the EC colonies. Nuclei outside the EC colonies were manually counted. EC purity (% EC) was calculated as the number of nuclei within EC colonies relative to total nuclei. To estimate % GLUT-1^+ ECs, cells within the EC colonies with membrane-localized GLUT-1 immunoreactivity (e.g., arrowheads in FIG. 24B) were manually counted. To estimate % Ki67^+ ECs, cells within the EC colonies with at least one nuclear-localized Ki67 punctum were manually counted. For quantification of fluorescence intensity in epifluorescence images, EC colonies were manually outlined, and the Measure function was used to obtain the mean fluorescence intensity for each image channel (fluorophore). A cell-free area of the plate was similarly quantified for background subtraction. Following background subtraction, the mean fluorescence intensity of each protein of interest was normalized to the mean fluorescence intensity of Hoechst to correct for effects of cell density. For confocal images, 3-4 fields (100×) containing only VE-cadherin^+ ECs were analyzed per well, with 4 wells per treatment condition. […]

Cc1c[nH]c(-c2cnc(NCCNc3ccc(C#N)cn3)nc2-c2ccc(Cl)cc2Cl)n1 [CHIR, CHIR 99021]
EC proliferation: increased EC proliferation
